Data as given in US8518903B2, “Use of toll-like receptor-9 agonists” (University of Pittsburgh—of the Commonwealth System of …, priority 2007, dated 2013).

Columns and labels:
[1] = test system: experimental NEC in newborn mice; assay: Murine NEC model in NFkB-GFP transgenic mice (histology, mucosal TNF-α RTPCR, NFκB activation); format: in vivo, mouse
Experimental: FIG. 27A-G. CpG-ODN-HS and CpG-DNA reduce the development of experimental NEC in vivo in newborn mice. Newborn NEC and control mice were injected with CpG-ODN-HS or CpG-DNA. A. Histology (H&E) of terminal ileum of breast fed mouse. B. Histology (H&E) of terminal ileum of mouse after induction of NEC. C. Histology (H&E) of terminal ileum of mouse treated with CpG-DNA, after which conditions which induced NEC were applied. D. Histology (H&E) of terminal ileum of mouse treated with CpG-ODN-HS, after which conditions which induced NEC were applied. E. Histology (H&E) of terminal ileum of breast fed mouse treated with CpG-ODN-HS. F. Histology (H&E) of terminal ileum of breast fed mouse treated with CpG-DNA. G. Severity of NEC in newborn mice as scored by a blinded pediatric pathologist. *p<0.05 vs. NEC in saline-injected mice.
FIG. 28. CpG-ODN-HS and CpG-DNA reduce the expression of mucosal TNF-α in NEC newborn mice in vivo.
FIG. 29A-D. Confocal microscopy showing the extent of NFkB activation in mice with NEC in the absence or presence of CpG-ODN-HS. CpG-ODN-HS reduces the level of NFkB activation in NEC newborn mice in vivo. The mice express NFkB-GFP, and sections were stained with anti-GFP antibody (red; arrow).
The effect of the TLR9 agonist CpG-ODN 5′ […] 3′ (SEQ ID NO:10; referred to herein as CpG-ODN-HS) on the mediator of activated TLR4, NFκB, was examined in a murine NEC model (previously described, above). The effect of CpG-ODN-HS on inflammation in the NEC murine model was also examined as a measured by TNF-α expression, which is an index of inflammation.
Materials and methods. Phosphorothioated CpG-ODN-HS and oligodeoxynucleotide (ODN) 1826 ([…]) (SEQ ID NO:6; referred to herein as CpG-DNA) were synthesized by the University of Pittsburgh DNA synthesis facility. ODNs were confirmed to be endotoxin-free by Limulus assay. NFkB-GFP antibody was obtained from Santa Cruz and Abcam. The extent of nuclear translocation was determined in an adaptation of the methodology of Ding and colleagues. In brief, a threshold limit was set based upon the emission signal for the nuclear stain DRAQ5, which therefore defined a nuclear region of interest (ROI). To define a corresponding cytoplasmic region of interest, a circular region 12 pixels beyond the nucleus was stenciled upon each cell. The average integrated pixel intensity pertaining to the corresponding NFkB emission within the cytoplasmic and nuclear regions was then determined for more than 200 cells per treatment group in at least four experiments per group, using MetaMorph software version 6.1 (Molecular Devices Corporation, Downingtown, Pa.).
Mucosal TNF-α expression was measured using quantitative real-time PCR (RTPCR). Quantitative real-time PCR in cultured enterocytes and intestinal tissue using the BioRad iCycler (Biorad, Hercules, CA) was performed as in (Leaphart, C. L., J. Cavallo, S. C. Gribar, S. Cetin, J. Li, M. F. Branca, T. D. Dubowski, C. P. Sodhi, and D. J. Hackam. 2007. A Critical Role for TLR4 in the Pathogenesis of Necrotizing Enterocolitis by Modulating Intestinal Injury and Repair. J Immunology 179:4808-4820). Oligonucleotide primer pairs used for RTPCR were as follows: forward: 5′ […] 3′ (SEQ ID NO:14), reverse: 5′ […] 3′ (SEQ ID NO:15); and forward: 5′ […] 3′ (SEQ ID NO:16), reverse: 5′ […] 3′ (SEQ ID NO:17). Gene expression was normalized to β-actin expression. Where indicated, gene expression was assessed on 2.5% agarose gels using ethidium bromide staining. […]

[2] = test system: models of ulcerative colitis; conditions: previous reports; cited from earlier work
[3] = test system: experimental NEC in newborn mice; assay: Experimental necrotizing enterocolitis in newborn mice, MDP treatment; format: in vivo, mouse
Experimental: FIG. 26A-E. MDP prevents against the development of experimental NEC in vivo in newborn mice. Newborn mice were injected with saline or MDP daily for four days, and then were induced to develop NEC. A. Histology (H&E) of terminal ileum of breast fed mouse treated with saline control. B. Histology (H&E) of terminal ileum of breast fed mouse treated with MDP. C. Histology (H&E) of terminal ileum of mouse pre-treated with saline, after which NEC was induced. D. Histology (H&E) of terminal ileum of mouse pre-treated with MDP, after which conditions which induced NEC in saline-treated mice were applied. E: Severity of NEC in newborn mice as scored by a blinded pediatric pathologist. *p<0.05 vs. NEC in saline-injected mice. Representative of three separate experiments with over 5 animals per group.
NOD2 expression in the intestine is reduced in human and experimental necrotizing enterocolitis. […]
MDP prevents against the development of experimental necrotizing enterocolitis. […] It was also determined that mucosal NOD2 expression is decreased in experimental NEC (FIG. 22I). […]

[4] = test system: TLR4; assay: TLR4 distribution and expression in enterocytes after MDP (immunohistochemistry, RT-PCR); format: in vivo, mouse
Experimental: FIG. 25. MDP treatment decreases TLR4 expression in enterocytes. Newborn mice were treated with LPS after pre-treatment with either saline or MDP. Three hours later mucosal scrapings were harvested from the terminal ileum, and subjected to RT-PCR for expression of TLR4. Representative of 4 separate experiments. Duplicate samples are shown for each group.
MDP treatment of enterocytes reduces the expression of TLR4. The next series of studies investigated the potential mechanisms by which MDP activation of NOD2 could lead to a reduction in the extent of TLR4 signaling.

[5] = test system: IEC-6 cells; assay: IL-6 release from LPS-treated IEC-6 cells (ELISA); format: cell-based; conditions: IEC-6 cells in vitro
Experimental: (§1) FIG. 24A-C. MDP inhibits TLR4 signaling in enterocytes. A. IL-6 release in vitro as determined by ELISA in IEC-6 cells that were either untreated, or treated with LPS in the presence or absence of MDP. B. Serum IL-6 release in vivo in wild-type (open bars) and NOD2-deficient mice (solid bars) that were either pre-treated with saline or MDP then injected with LPS. C. SDS-PAGE showing the expression of phosphorylated ERK and beta-actin in IEC-6 cells that were treated with media (control), LPS, LPS with MDP, LPS with MDP-C which is a non-stimulatory analogue of MDP, and either MDP or MDP-C alone. **p<0.05 vs. control by ANOVA, *p<0.05 vs. LPS by ANOVA.
(§2) The next series of experiments were designed to further define the physiological significance of the finding that MDP reduces TLR4-mediated NFkB translocation in enterocytes, and to evaluate potential mechanisms involved. Since NFkB activation is known to lead to the release of pro-inflammatory cytokines including IL-6, experiments were performed to evaluate whether MDP would alter the extent of IL-6 release from LPS-treated IEC-6 cells. […] To determine the physiological significance of this work in vivo, wild-type and NOD2-knockout mice were injected with LPS (5 mg/kg) in the presence or absence of MDP (1 mg/kg), and serum IL-6 release—a measure of TLR4 signaling in vivo—was determined by ELISA.

[6] = test system: wild-type and NOD2-knockout mice; assay: Serum IL-6 release in LPS-injected wild-type and NOD2-knockout mice (ELISA); format: in vivo, mouse; conditions: LPS 5 mg/kg, MDP 1 mg/kg
Experimental: as §1, §2

[7] = test system: IEC-6 enterocytes; assay: TLR4-mediated NFkB (p65) translocation in IEC-6 enterocytes treated with LPS and MDP; format: cell-based; conditions: IEC-6 cells
From the text: FIG. 23A-E. MDP prevents TLR4-mediated NFkB translocation in IEC-6 enterocytes. […] Representative of 5 separate experiments. **p<0.05 vs. control by ANOVA, *p<0.05 vs. LPS by ANOVA.
NOD2 activation with MDP inhibits TLR4 signaling in enterocytes. The next experiments were designed to determine whether NOD2 activation with MDP would inhibit TLR4 signaling in enterocytes. To do so, IEC-6 enterocytes—a cell line that represents a model system to study enterocyte biology and which expresses TLR4 (Neal et al., 2006, J Immunol 176:3070-3079)—were treated with LPS in the presence or absence of MDP. Since TLR4 signaling leads to the translocation of NFkB from the cytoplasm into the nucleus, the extent of TLR4 activation was evaluated using an immunofluorescence-based detection assay of the p65 subunit of NFkB. As is shown in FIG. 23A and quantified in FIG. 23E, in control cells, NFkB is localized in the cytoplasm. Upon treatment with LPS ([…], 1 h), NFkB was detected in the nucleus, indicative of NFkB activation (FIG. 23B).

[8] = test system: IEC-6 cells; assay: pERK expression in LPS-treated IEC-6 cells (SDS-PAGE); format: cell-based
Experimental: as §1
To further define the effects of MDP on LPS-mediated signaling in enterocytes, IEC-6 cells were treated with LPS in the presence or absence of MDP and the expression of the TLR4 downstream target pERK was assessed by SDS-PAGE. As is shown in FIG. 24C, LPS caused an increase in the expression of pERK compared with untreated cells. […] Taken together, these findings indicate that NOD2 activation with MDP leads to an inhibition of TLR4 signaling in enterocytes in vitro and in vivo.

Compound	activation of NFκB ([1]; NEC mice expressing NFkB-GFP, confocal microscopy)	level of expression of mucosal TNF-α in terminal ileum ([1]; NEC mice, RTPCR)	NEC pathology (histology of terminal ileum) ([1]; NEC mice, treated vs untreated)	degree of intestinal inflammation [2]	extent of NEC that developed (histology of terminal ileum) ([3]; NOD2-wild-type mice, MDP 1 mg/ml daily for four days, vs saline)	intestinal histology ([3]; breast fed mice, MDP alone)	relative distribution of TLR4 in enterocytes ([4]; immunohistochemistry)	expression of TLR4 in enterocytes ([4]; newborn mice, LPS after MDP pre-treatment, terminal ileum mucosal scrapings, RT-PCR)	LPS-induced IL-6 release [5]	effect in reducing TLR4 signaling (serum IL-6 release) ([6]; NOD2-knockout mice)	LPS-mediated serum IL-6 release ([6]; wild-type mice)	LPS-induced nuclear translocation of NFkB ([7]; LPS in the presence of MDP)	extent of NFkB translocation ([7]; MDP alone)	LPS-induced pERK expression [8]
5′ TCGTCGTTTTGTCGTTCCTGACGTT 3′ (listed as DNA, chemistry not fully specified) [CpG-ODN-HS, TLR9 agonist CpG-ODN]	reduced	reduced	inhibition of the NEC pathology	–	–	–	–	–	–	–	–	–	–	–
CC(=O)N[C@@H]1[C@@H](O[C@H](C)C(=O)N[C@@H](C)C(=O)N[C@H](CCC(=O)O)C(N)=O)[C@H](O)[C@@H](CO)O[C@H]1O [MDP, muramyl-di-peptide]	–	–	–	can limit the degree of intestinal inflammation	striking reduction in the extent of NEC	did not alter intestinal histology	does not alter	significant reduction	significantly reduced	less pronounced	significantly reduced	reduction in nuclear translocation	did not significantly alter	significantly reduced
CC(=O)NC1C(O)OC(CO)C(O)C1OC(C)C(=O)NC(C)C(=O)NC(CCC(=O)O)C(N)=O (stereo not shown) [MDPC]	–	–	–	–	–	–	–	–	did not reduce	–	–	–	–	did not reduce
